Assay results as given in patent EP0411395A2, “Use of ACE inhibitors for atherosclerosis-prophylaxis” (THERA PATENT-VERWALTUNGS-GmbH, priority 1989, dated 1991).

Test: Three-year placebo-controlled study in overweight persons: Doppler sonographic maximal blood flow velocity in the Arteria dorsalis pedis as parameter of atherosclerosis
Format: in vivo, Patienten
Conditions: for MAXIMALE BLUTSTRÖMUNGSGESCHWINDIGK.: 2 x 3 mg tgl. oral, Arteria dorsalis pedis
Description: Es wurden 122 übergewichtige Personen ausgesucht, die im Mittel 25 % Übergewicht hatten. Diese Patienten gaben nach Aufklärung ihr Einverständnis, an dieser Studie über 3 Jahre teilzunehmen. Sie hatten bereits 5 bis 10 Versuche einer Gewichtsabnahme hinter sich, die alle […] verlaufen waren. Ein Diabetes mellitus war nach der Definition des WHO-Reports (Techn. Rep. Ser. 646, 1 bis 80, 1980) bei diesen Patienten ausgeschlossen. Sie wurden in zwei gleich starke Gruppen eingeteilt, so daß nach Alter sowie Ausmaß und Dauer des Übergewichts kein Unterschied bestand. Die Patienten wurden in halbjährlichen Abständen ambulant kontrolliert. Wie zu Beginn wurden bei diesen Kontrollen folgende Blutwerte gemessen: Blutsenkung, Blutbild, Nüchternblutzucker, IGTT, Gewicht, Cholesterin und Triglyzeride, Serumglutamat-Oxalat-Transaminase (SGOT), Serumglutamat-Pyruvat-Transaminase (SGPT). Damit wurden den Stoffwechsel beeinträchtigende Krankheiten ausgeschlossen. Als Parameter der Atherosklerose wurde die dopplersonographisch bestimmte maximale Blutströmungsgeschwindigkeit in der Arteria dorsalis pedis verwendet. Alle Patienten hatten eine schmerzfreie Gehstrecke von über 200 m, die Arteria dorsalis pedis war gut tastbar. Oszillographisch fand sich kein Anhalt für eine Mediasklerose. Das Vorliegen einer Neuropathie wurde mit den üblichen klinischen Methoden ausgeschlossen.
Die erste Gruppe erhielt 2 x 3 mg Captopril täglich, die zweite Gruppe entsprechend Placebo. Die Patienten hatten die Auflage, keine den Stoffwechsel beeinträchtigenden Medikamente wie z.B. Diuretika, Betablocker oder dergleichen einzunehmen. In beiden Gruppen schieden über den Zeitraum von 3 Jahren 28 Patienten aus verschiedenen Gründen aus. Die Gruppen veränderten sich dadurch jedoch nicht so sehr, daß sie statistisch nicht mehr auswertbar gewesen wären. […] Die Ergebnisse des Versuchs sind in der nachstehenden Tabelle 1 dargestellt. Tabelle I

C[C@H](CS)C(=O)N1CCC[C@H]1C(=O)O [Captopril, 1-(2S)-3-Mercapto-2-methylpropionyl -L-prolin]
MAXIMALE BLUTSTRÖMUNGSGESCHWINDIGK. (1985 - 1 (start), Risikopatienten (Stoffwechselgesunde Übergewichtige), n=63): 13,6 ± 0,4 cm/s
MAXIMALE BLUTSTRÖMUNGSGESCHWINDIGK. (1986 - 2, Risikopatienten, n=60): 13,5 ± 0,3 cm/s
MAXIMALE BLUTSTRÖMUNGSGESCHWINDIGK. (1987 - 2, Risikopatienten, n=54): 13,4 ± 0,2 cm/s
MAXIMALE BLUTSTRÖMUNGSGESCHWINDIGK. (1988 - 1 (after 3 years), Risikopatienten, n=48): 13,5 ± 0,2 cm/s
Abfall der maximalen Blutströmungsgeschwindigkeit (nach 3 Jahren, versus Placebo, 2 x 3 mg Captopril täglich, p 0,05, Student's t-Test): signifikant geringerer Abfall
